Test results published in US20230099229A1, “METHODS OF TREATING MULTIPLE SCLEROSIS” (REPRISE PHARMACEUTICALS, INC., priority 2020, published 2023).
Structures can show the parent of a compound that is named as a salt.

Test system: Experimental allergic encephalitis (EAE) in female C57BL/6 mice
Experiment: EAE model in C57BL/6 mice, daily neurological clinical score (Example 2)
Type: in vivo, mouse
Conditions: C57BL/6 mice treated from clinical score 2 for 28 days; DMF 15 mg/kg BID, GCZ 5 mg/kg BID, alone or combined; compared to vehicle control and single agents
Protocol: Experimental allergic encephalitis (EAE) is induced in female C57BL/6 mice (10 weeks old) by subcutaneous injection in the flank regions (left and right sides) with 200 μl total of an emulsion of MOG35-55 peptide (200 μg in 100 μl phosphate buffered saline plus 100 μl of complete Freund's adjuvant containing […] of heat-inactivated Mycobacterium tuberculosis). Each mouse then receives 200 ng of pertussis toxin intraperitoneally (IP) on the day of immunization (day 0) and then again 48 h later (day 2). Neurological assessments are reported using a five-point standardized rating scale to evaluate motor deficit: 0, no deficit; 1, tail paralysis; 2, unilateral hind limb weakness; 3, incomplete bilateral hind limb paralysis and/or partial forelimb weakness; 4, complete hind limb paralysis and partial forelimb weakness; 5, moribund state or death.
The DMF is prepared as a suspension (15 mg/ml) in 0.8% hydroxypropyl methylcellulose (HPMC) weekly and kept at 4° C. under constant stirring. DMF is diluted into 200 μl HPMC, corresponding to a dose of 15 mg/kg body weight, and is administered twice daily (30 mg/kg/day) by oral gavage through a bulb-tipped curved gastric gavage needle by trained operators.
Experimental allergic encephalitis (EAE) was induced in female C57BL/6 mice as described in Example 1. […]

Q: With `COC(=O)/C=C/C(=O)OC` [DMF, dimethyl fumarate] as the compound, how does the “EAE clinical scores (five-point motor deficit scale 0-5), fitted regression curves” value read?
A: no observed difference

Q: `Cc1ccc(S(=O)(=O)NC(=O)NN2CC3CCCC3C2)cc1` (centres unmarked) [GCZ, gliclazide] was tested. Which “EAE clinical scores (five-point motor deficit scale 0-5), fitted regression curves” value did it give?
A: no observed difference
